Data set [1] can be described thus: Adhesiveness (material sticking to the punch). In kind it is physicochemical. Conditions: 30 mg, φ8 mm round tooling, 10 KN; for Maximum amount (mg) of material sticking to the punch: held 30 s. As to the method:
30 mg of Form CSI, Form CSIII and prior art Form A were weighed and then added into the dies of φ8 mm round tooling, compressed at 10 KN and held for 30 s. The punch was weighed and the amount of material sticking to the punch was calculated. The compression was repeated twice and the maximum amount of material sticking to the punch during the compression were recorded.

Data set [2] in a line: Storage stability of drug substance (crystalline form by XRPD, chemical impurity by HPLC). In kind it is physicochemical.
Source text: (§1) Crystalline form and chemical impurity were checked by XRPD and HPLC, respectively.
as §1

Data set [3] in a line: Mechanical stability: manual grinding, XRPD before and after. The note with it: ground manually for 5 minutes in mortar. In kind it is physicochemical. How it is done: Solid sample of prior art Form A, Form CSI and Form CSIII of the present disclosure were separately grounded manually for 5 minutes in mortars. The XRPD patterns overlay before and after grinding is shown in FIG. 14, FIG. 15 and FIG. 16.

Data set [4] in a line: Crystalline form before and after formulation process (XRPD). Type of data set: physicochemical. The note with it: dry granulation and tableting. The source says:
The formulation and preparation process of Form CSI and Form CSIII are shown in Table 16 and Table 17, respectively.

Data set [5] can be described thus: Humidity stability by DVS. In kind it is physicochemical. Conditions: humidity range 0-95% RH, XRPD before and after. As to the method: Dynamic Vapor Sorption (DVS) was measured via an SMS (Surface Measurement Systems Ltd.) intrinsic DVS instrument. Typical Parameters for DVS test are as follows:
Gas and flow rate: nitrogen, 200 mL/min
Rate of mass change: 0.002%/min
RH range: 0% RH to 95% RH
DVS was applied to test the stability of Form CSI under different humidity with about 10 mg of samples. The weight change at each relative humidity were recorded in a humidity range of 0-95% RH.
DVS was applied to test the stability of Form CSIII under different humidity with about 10 mg of samples. The weight change at each relative humidity were recorded in a humidity range of 0-95% RH.

Data set [6] can be described thus: Mechanical stability: tableting under different pressure, XRPD. Type of data set: physicochemical. Conditions: 5 kN, 10 kN, 20 kN pressure. From the text: A certain amount of Form CSI and Form CSIII were compressed into tablets under 5 kN, 10 kN, 20 kN pressure with suitable tableting die. Crystalline form before and after tableting were checked by XRPD.
For data set [7] the following is noted: cited from earlier work; for crystalline form conversion at low humidity: under 5% RH.
Data set [8] can be described thus: Compressibility (manual tablet press, tensile strength). In kind it is physicochemical. The note with it: 10 KN. As to the method: A manual tablet press was used for compression. 60 mg of Form CSIII and prior art Form A were weighed and added into the dies of a φ6 mm round tooling, compressed at 10 KN manually, then stored at room temperature for 24 h until complete elastic recovery, diameter (D) and thickness (L) were tested with a caliper. Hardness (H) was tested with an intelligent tablet hardness tester. Tensile strength of the powder was calculated with the following formula: T=2H/πDL. Under a certain force, the greater the tensile strength, the better the compressibility.

For data set [9] the following is noted: heated to 75-100° C.; WO2014152270A1; cited from earlier work.
[10] abbreviates: 25° C./60% RH (sealed), 6 Months.
The mark [11] stands for this setting: 40° C./75% RH (sealed), 6 Months.
Where [12] appears, read: 60° C./75% RH (sealed), 1 Month.
The mark [13] stands for this setting: 60 mg, φ6 mm round tooling, after 24 h.

Where two headings read alike, the source gives them in different places.

The text below walks through data of patent US20220324808A1, “Co-crystal of Compound I Dihydrochloride and Preparation Method and Use Thereof” (CRYSTAL PHARMACEUTICAL (SUZHOU) CO., LTD., priority 2020, published 2022).

With `COC(=O)N1CCN(Cc2cccc(NC(=O)Nc3ccc(C)nc3)c2F)CC1.COC(=O)N1CCN(Cc2cccc(NC(=O)Nc3ccc(C)nc3)c2F)CC1.Cl.Cl.Cl.Cl.O=C(O)/C=C/C(=O)O` [Form CSI], in [1], the “maximum amount relative to that of the prior art Form A” value was “less than ⅕”. The “Maximum amount (mg) of material sticking to the punch” value in [1] was found to be 0.48 mg. In addition, the “Purity (%)” value amounted to 99.66% in data set [2] (25° C./60% RH (open), 6 Months); 99.65% in data set [2] (setting [10]); 99.65% in data set [2] (40° C./75% RH (open), 6 Months); 99.64% in data set [2] (setting [11]); 99.70% in [2] (setting [12]); 99.71% in data set [2] (Initial). Further, the “Solid Form” value in data set [2] (25° C./60% RH (open), 6 Months) is given as “Form CSI”; in data set [2] (setting [10]) it was “Form CSI”; in data set [2] (40° C./75% RH (open), 6 Months), “Form CSI”; in data set [2] (setting [11]) it was “Form CSI”; in data set [2] (setting [12]), “Form CSI”; in data set [2] (Initial) it was “Form CSI”. For the same compound, the “storage stability (in words)” value in [2] (25° C./60% RH and 40° C./75% RH) is “stable for at least six months”; in data set [2] (60° C./75% RH), “stable for at least one month”. Also, the “crystal form and crystallinity after grinding” value in data set [3] was “no crystal transformation and the crystallinity almost has no change after grinding”. Besides, the “crystalline form before and after the formulation process” value in data set [4] is “remain stable before and after the formulation process”. For the same compound, the “crystalline state after DVS test” value in data set [5] was “remains unchanged”. Besides, in [6], the “crystalline form after tableting” value was “no crystal transformation after tableting under different pressure”.
As to `COC(=O)N1CCN(Cc2cccc(NC(=O)Nc3ccc(C)nc3)c2F)CC1.Cl.Cl.O` [Form A], in data set [7] (DVS, between about 30% RH and about 5% RH, WO2014152270A1), the weight loss entry is “about 2.7 wt %”. Besides, the total weight gain entry in [7] (DVS, between about 40% RH and about 95% RH, WO2014152270A1) was “about 0.55 wt %”. In data set [7], the “crystalline form conversion at low humidity” value is “converted to dehydrated state Form C”. Further, the “crystalline form conversion at low humidity” value in data set [7] (listed as prior art Form A) is “converted to Form C”. Besides, the “Maximum amount (mg) of material sticking to the punch” value in [1] was found to be 2.83 mg. The “crystal form and crystallinity after grinding” value in data set [3] is listed as “crystallinity of prior art Form A decreases after grinding”. In data set [8] (setting [13]), the “Diameter (mm)” value is 6.00 mm, the “Hardness (kgf)” value was 3.38 kgf and the “Thickness (mm)” value worked out at 1.67 mm. For the same compound, the “Tensile strength (MPa)” value in data set [8] (T=2H/πDL) was determined as 2.11 MPa. Moreover, the “crystalline form conversion on heating” value in data set [9] is given as “converts to Form B”.
